Columns and labels:
[1] = target: Keap1-Nrf2 PPI (Keap1 Kelch domain protein / FITC-9mer Nrf2 peptide amide) (Homo sapiens, UniProt Q14145); test: Fluorescence polarisation; format: binding; conditions: for inhibition at 50 µM: read-out: inhibitory rate against Keap1-Nrf2 PPI; for inhibitory activities against Keap1-Nrf2 PPI compared to compound K3: FP assay, 5 and 50 μM, R2 substituent varied
[2] = Metabolic stability in human liver microsomes; format: in vitro ADME; conditions: pH 7.4

Chain of Keap1-Nrf2 PPI (Keap1 Kelch domain protein / FITC-9mer Nrf2 peptide amide) (Q14145 321-609 limits assumed): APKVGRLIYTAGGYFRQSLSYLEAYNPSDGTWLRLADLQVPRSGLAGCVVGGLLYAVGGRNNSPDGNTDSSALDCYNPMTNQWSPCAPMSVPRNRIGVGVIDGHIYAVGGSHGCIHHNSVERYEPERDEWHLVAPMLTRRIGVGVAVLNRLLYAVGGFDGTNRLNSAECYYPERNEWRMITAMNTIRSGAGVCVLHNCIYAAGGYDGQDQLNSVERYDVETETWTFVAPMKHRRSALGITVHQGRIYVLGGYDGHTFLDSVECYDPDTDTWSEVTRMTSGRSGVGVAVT

SMILES	IC50 [1]	inhibition at 50 µM [1]	inhibitory activities against Keap1-Nrf2 PPI compared to compound K3 [1]	remaining at 0.5 h, 10 μM [2]
COc1ccc(S(=O)(=O)Nc2ccc(NS(=O)(=O)c3ccc(OC)cc3)cc2)cc1 [K3]	36.3 µM	~68%		
COc1ccc(S(=O)(=O)Nc2ccc(NS(=O)(=O)c3ccc(C)cc3)cc2)cc1 [K11]			markedly decreased	
O=C(CCc1ccc(O)cc1)c1c(O)cc(O)cc1O [PHL, Phloretin, reference compound]	8.67 µM			10.3%
COc1ccc(S(=O)(=O)Nc2ccc(NS(=O)(=O)c3ccc(-c4ccccc4)cc3)cc2)cc1 [K14]			markedly decreased	
COc1ccc(S(=O)(=O)Nc2ccc(NS(=O)(=O)Cc3ccccc3)cc2)cc1 [K15]			markedly decreased	
COc1ccc(S(=O)(=O)Nc2ccc(NS(=O)(=O)c3ccc(OC)cc3)c(CCC(=O)O)c2)cc1 [KP-1]	0.74 µM			
COc1ccc(S(=O)(=O)Nc2ccc(NS(=O)(=O)c3ccc4ccccc4c3)cc2)cc1 [K16]			markedly decreased	
COc1ccc(S(=O)(=O)Nc2ccc(NS(=O)(=O)c3ccccc3)cc2)cc1 [K10]			markedly decreased	
COc1ccc(S(=O)(=O)Nc2ccc(NS(=O)(=O)c3cccnc3)cc2)cc1 [K18]	~31.5 µM	72%	slightly higher	
COc1ccc(S(=O)(=O)Nc2ccc(NS(=O)(=O)c3cccc4cccnc34)cc2)cc1 [K17]			markedly decreased	

From article PMC9518255 (Journal of Enzyme Inhibition and Medicinal Chemistry, 2022)
